Reference: patent US7943770B2, “Fused quinoline derivative and use thereof” (Takeda Pharmaceutical Company Limited, priority 2004, dated 2011)

Biological target: T1, hNK2 receptor (Homo sapiens, UniProt P21452)
T1 construct: host or cells: CHO cells
T1 sequence (P21452 1-398): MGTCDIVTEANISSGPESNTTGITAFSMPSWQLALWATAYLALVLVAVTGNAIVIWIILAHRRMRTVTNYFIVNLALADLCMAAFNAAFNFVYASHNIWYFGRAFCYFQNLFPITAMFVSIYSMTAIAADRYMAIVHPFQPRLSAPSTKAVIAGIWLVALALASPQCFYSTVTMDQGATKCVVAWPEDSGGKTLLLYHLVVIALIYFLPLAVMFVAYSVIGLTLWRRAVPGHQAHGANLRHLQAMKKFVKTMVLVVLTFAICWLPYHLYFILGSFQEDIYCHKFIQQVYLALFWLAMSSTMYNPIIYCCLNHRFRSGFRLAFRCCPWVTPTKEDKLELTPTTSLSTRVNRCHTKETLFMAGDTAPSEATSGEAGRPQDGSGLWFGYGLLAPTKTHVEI
Test: Radio-ligand ([125I]-NKA) receptor binding inhibitory activity using membrane fraction of hNK2 receptor-expressing CHO cell
Conditions: membrane fraction of hNK2 receptor-expressing CHO cells, 25° C., 30 min
How it was run: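 Membranes from hNK2-expressing CHO cells (20 μg/mL suspension) incubated with test compound and [125I]-NKA ([…] solution as added) in Tris-HCl pH 7.4 with BSA, protease inhibitors, 3 mM MnCl2, 25 °C, 30 min. Bound radioactivity by GF/C filtration and scintillation; inhibition expressed relative to specific binding (total minus unlabeled-NKA non-specific).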

Row | Compound | IC50
1 | O=C(N[C@@H]1CCCC[C@@H]1C(=O)N1CC[C@@H]2[C@H](C3CC3)Nc3ccccc3[C@@H]21)c1ccccc1 [Example 59, N-((1R,2S)-2-[(3aR,4S,9bR)-(4-Cyclopropyl-2,3,3a,4,5,9b-hexahydro-1H-pyrrolo[3,2-c]quinolin-1-yl)carbonyl]cyclohexyl)benzamide] | < 10 nM
2 | O=C(Nc1ccc(F)cc1)N[C@@H]1CCCC[C@@H]1C(=O)N1CC[C@@H]2[C@H](c3ccccc3)Nc3ccccc3[C@@H]21 [Example 139, N-(4-Fluorophenyl)-N′-((1R,2S)-2-{[(3aR,4R,9bR)-4-phenyl-2,3,3a,4,5,9b-hexahydro-1H-pyrrolo[3,2-c]quinolin-1-yl]carbonyl}cyclohexyl)urea] | < 1 nM
3 | O=C(N[C@@H]1CCCC[C@@H]1C(=O)N1CC[C@@H]2[C@H](C3CC3)Nc3ccccc3[C@@H]21)c1ccccc1 (relative stereo) [Example 29, N-((1R,2S)-2-{[(3aR*,4S*,9bR*)-4-Cyclopropyl-2,3,3a,4,5,9b-hexahydro-1H-pyrrolo[3,2-c]quinolin-1-yl]carbonyl}cyclohexyl)benzamide] | < 10 nM
4 | O=C(N[C@@H]1CCCC[C@@H]1C(=O)N1CC[C@@H]2[C@H](c3cc[nH]c3)Nc3ccccc3[C@@H]21)c1ccccc1 (relative stereo) [Example 52, N-((1R,2S)-2-{[(3aR*,4R*,9bR*)-4-(1H-Pyrrol-3-yl)-2,3,3a,4,5,9b-hexahydro-1H-pyrrolo[3,2-c]quinolin-1-yl]carbonyl}cyclohexyl)benzamide] | < 10 nM
5 | O=C(N[C@@H]1CCCC[C@@H]1C(=O)N1CC[C@@H]2[C@H](c3ccoc3)Nc3ccccc3[C@@H]21)c1ccccc1 [Example 63, N-((1R,2S)-2-{[(3aR,4R,9bR)-4-(3-Furyl)-2,3,3a,4,5,9b-hexahydro-1H-pyrrolo[3,2-c]quinolin-1-yl]carbonyl}cyclohexyl)benzamide] | < 1 nM
6 | O=C(N[C@@H]1CCCC[C@@H]1C(=O)N1CC[C@@H]2[C@H](c3ccccc3)Nc3ccccc3[C@@H]21)c1ccccc1 [Example 58, N-{(1R,2S)-2-[((3aR,4R,9bR)-4-Phenyl-2,3,3a,4,5,9b-hexahydro-1H-pyrrolo[3,2-c]quinolin-1-yl)carbonyl]cyclohexyl}benzamide] | < 10 nM
7 | COC[C@@H]1Nc2ccccc2[C@H]2[C@@H]1CCN2C(=O)[C@H]1CCCC[C@H]1NC(=O)c1ccccc1 (relative stereo) [Example 51, N-((1R,2S)-2-{[(3aR*,4R*,9bR*)-4-(Methoxymethyl)-2,3,3a,4,5,9b-hexahydro-1H-pyrrolo[3,2-c]quinolin-1-yl]carbonyl}cyclohexyl)benzamide] | < 10 nM
8 | O=C(Nc1ccccc1)N[C@@H]1CCCC[C@@H]1C(=O)N1CC[C@@H]2[C@H](c3ccsc3)Nc3ccccc3[C@@H]21 [Example 186, N-Phenyl-N′-((1R,2S)-2-{[(3aR,4R,9bR)-4-(3-thienyl)-2,3,3a,4,5,9b-hexahydro-1H-pyrrolo[3,2-c]quinolin-1-yl]carbonyl}cyclohexyl)urea] | < 1 nM
9 | COCCN(C)c1ccc(C(=O)N[C@@H]2CCCC[C@@H]2C(=O)N2CC[C@@H]3[C@H](COC)Nc4ccccc4[C@@H]32)cc1 [Example 273, 4-[(2-Methoxyethyl)(methyl)amino]-N-((1R,2S)-2-{[(3aR,4R,9bR)-4-(methoxymethyl)-2,3,3a,4,5,9b-hexahydro-1H-pyrrolo[3,2-c]quinolin-1-yl]carbonyl}cyclohexyl)benzamide] | < 1 nM
10 | O=C(N[C@@H]1C2CCC(CC2)[C@@H]1C(=O)N1CC[C@@H]2[C@H](c3ccccc3)Nc3ccccc3[C@@H]21)c1ccccc1 [Example 178, N-((2R,3S)-3-{[(3aR,4R,9bR)-4-Phenyl-2,3,3a,4,5,9b-hexahydro-1H-pyrrolo[3,2-c]quinolin-1-yl]carbonyl}bicyclo[2.2.2]oct-2-yl)benzamide] | < 10 nM
11 | O=C(N[C@@H]1CCCC[C@@H]1C(=O)N1CC[C@@H]2[C@H](c3ccccn3)Nc3ccccc3[C@@H]21)c1ccccc1 (relative stereo) [Example 19, N-((1R,2S)-2-{[(3aR*,4R*,9bR*)-4-Pyridin-2-yl-2,3,3a,4,5,9b-hexahydro-1H-pyrrolo[3,2-c]quinolin-1-yl]carbonyl}cyclohexyl)benzamide] | < 10 nM
12 | CCOCCNC(=O)N[C@@H]1CCCC[C@@H]1C(=O)N1CC[C@@H]2[C@H](c3ccccc3)Nc3ccccc3[C@@H]21 [Example 162, N-(2-Ethoxyethyl)-N′-((1R,2S)-2-{[(3aR,4R,9bR)-4-phenyl-2,3,3a,4,5,9b-hexahydro-1H-pyrrolo[3,2-c]quinolin-1-yl]carbonyl}cyclohexyl)urea] | < 10 nM
13 | COC[C@@H]1Nc2ccccc2[C@H]2[C@@H]1CCN2C(=O)[C@H]1CCCC[C@H]1NC(=O)c1c[nH]c(-c2ccccc2)n1 [Example 280, N-((1R,2S)-2-{[(3aR,4R,9bR)-4-(Methoxymethyl)-2,3,3a,4,5,9b-hexahydro-1H-pyrrolo[3,2-c]quinolin-1-yl]carbonyl}cyclohexyl)-2-phenyl-1H-imidazole-4-carboxamide] | < 1 nM
14 | COC[C@@H]1Nc2ccccc2[C@H]2[C@@H]1CCN2C(=O)[C@H]1CCCC[C@H]1NC(=O)c1ccc(-n2cncn2)cc1 [Example 265, N-((1R,2S)-2-{[(3aR,4R,9bR)-4-(Methoxymethyl)-2,3,3a,4,5,9b-hexahydro-1H-pyrrolo[3,2-c]quinolin-1-yl]carbonyl}cyclohexyl)-4-(1H-1,2,4-triazol-1-yl)benzamide] | < 1 nM
15 | CCNC(=O)N[C@@H]1CCCC[C@@H]1C(=O)N1CC[C@@H]2[C@H](C3CC3)Nc3ccccc3[C@@H]21 [Example 185, N-((1R,2S)-2-{[(3aR,4S,9bR)-4-Cyclopropyl-2,3,3a,4,5,9b-hexahydro-1H-pyrrolo[3,2-c]quinolin-1-yl]carbonyl}cyclohexyl)-N′-ethylurea] | < 10 nM
16 | COc1ccc(/C=C/C(=O)N[C@@H]2CCCC[C@@H]2C(=O)N2CC[C@@H]3[C@H](c4ccccc4)Nc4ccccc4[C@@H]32)cc1 [Example 105, (2E)-3-(4-Methoxyphenyl)-N-((1R,2S)-2-{[(3aR,4R,9bR)-4-phenyl-2,3,3a,4,5,9b-hexahydro-1H-pyrrolo[3,2-c]quinolin-1-yl]carbonyl}cyclohexyl)acrylamide] | < 1 nM
17 | O=C(/C=C/c1ccc(F)cc1)N[C@@H]1CCCC[C@@H]1C(=O)N1CC[C@@H]2[C@H](c3ncc[nH]3)Nc3ccccc3[C@@H]21 [Example 297, (2E)-3-(4-Fluorophenyl)-N-((1R,2S)-2-{[(3aR,4R,9bR)-4-(1H-imidazol-2-yl)-2,3,3a,4,5,9b-hexahydro-1H-pyrrolo[3,2-c]quinolin-1-yl]carbonyl}cyclohexyl)acrylamide] | < 1 nM
18 | COC[C@@H]1Nc2ccccc2[C@H]2[C@@H]1CCN2C(=O)[C@H]1CCCC[C@H]1NC(=O)c1ccc(OC)c(C#N)c1 [Example 275, 3-Cyano-4-methoxy-N-((1R,2S)-2-{[(3aR,4R,9bR)-4-(methoxymethyl)-2,3,3a,4,5,9b-hexahydro-1H-pyrrolo[3,2-c]quinolin-1-yl]carbonyl}cyclohexyl)benzamide] | < 1 nM
19 | COC[C@@H]1Nc2ccccc2[C@H]2[C@@H]1CCN2C(=O)[C@H]1CCCC[C@H]1NC(=O)Nc1ccc(C#N)cc1 [Example 217, N-(Cyanophenyl)-N′-((1R,2S)-2-{[(3aR,4R,9bR)-4-(methoxymethyl)-2,3,3a,4,5,9b-hexahydro-1H-pyrrolo[3,2-c]quinolin-1-yl]carbonyl}cyclohexyl)urea] | < 1 nM
20 | COC[C@@H]1Nc2ccccc2[C@H]2[C@@H]1CCN2C(=O)[C@H]1CCCC[C@H]1NC(=O)CNc1ccccc1 [Example 238, N^1-((1R,2S)-2-{[(3aR,4R,9bR)-4-(Methoxymethyl)-2,3,3a,4,5,9b-hexahydro-1H-pyrrolo[3,2-c]quinolin-1-yl]carbonyl}cyclohexyl)-N^2-phenylglycinamide] | < 10 nM
21 | NC(=O)c1ccc(C(=O)N[C@@H]2CCCC[C@@H]2C(=O)N2CC[C@@H]3[C@H](c4ccsc4)Nc4ccccc4[C@@H]32)cc1 [Example 190, N-((1R,2S)-2-{[(3aR,4R,9bR)-4-(3-Thienyl)-2,3,3a,4,5,9b-hexahydro-1H-pyrrolo[3,2-c]quinolin-1-yl]carbonyl}cyclohexyl)terephthalamide] | < 1 nM
22 | O=C(/C=C/c1ccc(C(F)(F)F)cc1)N[C@@H]1CCCC[C@@H]1C(=O)N1CC[C@@H]2[C@H](c3ccccc3)Nc3ccccc3[C@@H]21 [Example 106, (2E)-N-((1R,2S)-2-{[(3aR,4R,9bR)-4-Phenyl-2,3,3a,4,5,9b-hexahydro-1H-pyrrolo[3,2-c]quinolin-1-yl]carbonyl}cyclohexyl)-3-[4-(trifluoromethyl)phenyl]acrylamide] | < 10 nM
23 | COC[C@@H]1Nc2ccccc2[C@H]2[C@@H]1CCN2C(=O)[C@H]1CCCC[C@H]1NC(=O)c1ccc(-n2cnc(C)c2)cc1 [Example 272, N-((1R,2S)-2-{[(3aR,4R,9bR)-4-(Methoxymethyl)-2,3,3a,4,5,9b-hexahydro-1H-pyrrolo[3,2-c]quinolin-1-yl]carbonyl}cyclohexyl)-4-(4-methyl-1H-imidazol-1-yl)benzamide] | < 1 nM
24 | O=C(CCCCCO)N[C@@H]1CCCC[C@@H]1C(=O)N1CC[C@@H]2[C@H](c3ccccc3)Nc3ccccc3[C@@H]21 [Example 119, 6-Hydroxy-N-((1R,2S)-2-{[(3aR,4R,9bR)-4-phenyl-2,3,3a,4,5,9b-hexahydro-1H-pyrrolo[3,2-c]quinolin-1-yl]carbonyl}cyclohexyl)hexanamide] | < 10 nM
